Results as given in patent publication US20240148821A1, “PHARMACEUTICAL USE OF CYCLIC PEPTIDE COMPOUND” (CHUGAI SEIYAKU KABUSHIKI KAISHA, priority 2021, published 2024).
Numbered stars: 1 amine (or outer) side, 2 acyl side, 3 side chain; on linkers, the order of the positions; unused ones are H or OH. Bridge positions count the residues as written; N and C are the ends. Square brackets hold non-standard residues; d marks the D form. Peptide text beside a SMILES is read from it. * marks the point of attachment. hPhe(3,5-F2-4-CF3) = N[C@@H](CCc1cc(F)c(C(F)(F)F)c(F)c1)C(=O)O; hPhe(3-Cl-4-CF3) = N[C@@H](CCc1ccc(C(F)(F)F)c(Cl)c1)C(=O)O; NEtPhe(4-CF3) = CCN[C@@H](Cc1ccc(C(F)(F)F)cc1)C(=O)O; hPhe(4-CF3) = N[C@@H](CCc1ccc(C(F)(F)F)cc1)C(=O)O; NMePhe(4-Cl) = CN[C@@H](Cc1ccc(Cl)cc1)C(=O)O; NMedβ3hAla = C[C@H](CC(=O)[*:2])N(C)[*:1]; NMeGly(cPent) = CN[C@H](C(=O)O)C1CCCC1; NMeCha = CN[C@@H](CC1CCCCC1)C(=O)O; Hyp = O=C(O)[C@@H]1C[C@@H](O)CN1; NMeChg = CN[C@H](C(=O)O)C1CCCCC1; NMeF = CN[C@@H](Cc1ccccc1)C(=O)O; NMeT = CN[C@H](C(=O)O)[C@@H](C)O; N(CH2CH2)2CF2 = FC1(F)CCN(*)CC1; NMeD = CN[C@@H](CC(=O)O)C(=O)O; NMeL = CN[C@@H](CC(C)C)C(=O)O; NMeV = CN[C@H](C(=O)O)C(C)C; d(β3hA) = C[C@@H](N)CC(=O)O; Pip = O=C(O)[C@@H]1CCCCN1; NMeA = CN[C@@H](C)C(=O)O; NMeAib = CNC(C)(C)C(=O)O; Nle = CCCC[C@H](N)C(=O)O; Piperidide = C1CCN(*)CC1; dNMeA = CN[C@H](C)C(=O)O; Ac5c = NC1(C(=O)O)CCCC1; Aze = O=C(O)[C@@H]1CCN1; Ac4c = NC1(C(=O)O)CCC1; Sar = CNCC(=O)O

Legend:
[1] = target: protein-protein interaction between Kras and SOS1 (biotin-tagged human Kras loaded with GDP, His-tagged human SOS1) (Homo sapiens (Human), UniProt P01116, G12D); experiment: Protein-protein interaction inhibition between Kras and SOS1 (KrasG12D-SOS PPI) using AlphaScreen; format: biochemical; conditions: AlphaScreen; biotin-tagged human Kras loaded with GDP, His-tagged human SOS1; read-out: KRAS G12D-SOS PPI IC50;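 note: kras produced in E. coli, Ni-coupled donor beads and streptavidin acceptor beads, excitation 680 nm with emission detected at 520–620 nm via singlet oxygen transfer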
[2] = test system: Human pancreatic cancer cell line AsPC-1 (G12D mutation Kras); experiment: AsPC-1 cell growth inhibition (AsPC-1 CGI); format: cell-based; conditions: read-out: AsPC-1 cell growth inhibition, 50% growth inhibitory concentration (IC50 value); 96 hours, CellTiter-Glo, values classified in ranges
Method: Test compounds were serially dilated with dimethyl sulfoxide, and 200 nL was then dispensed to a U-bottom 96-well plate using Labcyte Echo. […] The cell suspension was dispensed to a. plate containing a test compound at 100 μL per well and incubated at 37° C. in a 5% carbon dioxide gas incubator. 96 hours later, 80 μL of CellTiter-Glo (Promega) was added to each well and fluorescence was measured.

SMILES | IC50 [1] [nM] | IC50 [2] [nM]
CC[C@H](C)[C@@H]1NC(=O)[C@H](CC(C)C)N(C)C(=O)C[C@@H](C(=O)N2CCCCC2)N(C)C(=O)[C@H](CC2CCCCC2)N(C)C(=O)C2(CCCC2)NC(=O)[C@@H]2CCCN2C(=O)[C@H](CCc2ccc(C(F)(F)F)c(Cl)c2)NC(=O)CN(C)C(=O)[C@H](CC2CCCCC2)N(C)C(=O)[C@@H]2CCN2C(=O)[C@H](C)N(C)C1=O [Compound 87] ([NMeL]I[NMeA][Aze][NMeCha][Sar][hPhe(3-Cl-4-CF3)]P[Ac5c][NMeCha][NMeD]-Piperidide; lactam N-11) | 45 | > 500
CC[C@H](C)[C@@H]1NC(=O)[C@H]([C@@H](C)O)N(C)C(=O)C[C@@H](C(=O)N2CCCCC2)N(C)C(=O)[C@H](C(C)C)N(C)C(=O)C2(CCCC2)NC(=O)[C@@H]2CCCN2C(=O)[C@H](CCc2ccc(C(F)(F)F)c(Cl)c2)NC(=O)CN(C)C(=O)[C@H](CC2CCCCC2)N(C)C(=O)[C@@H]2CCN2C(=O)[C@H](C)N(C)C1=O [Compound 91] ([NMeT]I[NMeA][Aze][NMeCha][Sar][hPhe(3-Cl-4-CF3)]P[Ac5c][NMeV][NMeD]-Piperidide; lactam N-11) | 1.5 | > 500
CC[C@H](C)[C@@H]1NC(=O)[C@H](CC(C)C)N(C)C(=O)C[C@@H](C(=O)N(C)C)NC(=O)[C@H](C(C)C)N(C)C(=O)C2(CCCC2)NC(=O)[C@H](CC(=O)N2CCC(F)(F)CC2)N(C)C(=O)[C@H](CCc2ccc(C(F)(F)F)c(Cl)c2)NC(=O)CN(C)C(=O)[C@H](CC2CCCCC2)N(C)C(=O)CN(C)C(=O)CN(C)C1=O [Compound 97] ([NMeL]I[Sar][Sar][NMeCha][Sar][hPhe(3-Cl-4-CF3)][NMeD](N(CH2CH2)2CF2)[Ac5c][NMeV]D-NMe2; lactam N-11) | 40 | > 500
CCCC[C@@H]1NC(=O)[C@H](CCc2ccc(C(F)(F)F)c(Cl)c2)NC(=O)CN(C)C(=O)[C@H](Cc2ccc(Cl)cc2)N(C)C(=O)[C@@H]2CCN2C(=O)[C@H](C)N(C)C(=O)[C@H]([C@@H](C)CC)NC(=O)[C@@H]2CCCCN2C(=O)C[C@@H](C(=O)N2CCCCC2)N(C)C(=O)[C@H](CC(C)C)NC(=O)C(C)(C)N(C)C1=O [Compound 103] ([Pip]I[NMeA][Aze][NMePhe(4-Cl)][Sar][hPhe(3-Cl-4-CF3)][Nle][NMeAib]L[NMeD]-Piperidide; lactam N-11) | 22 | > 500
CC[C@H](C)[C@@H]1NC(=O)[C@H](C)N(C)C(=O)C[C@@H](C(=O)N2CCCCC2)N(C)C(=O)[C@H](C(C)C)N(C)C(=O)C2(CCCC2)NC(=O)[C@@H]2CCCN2C(=O)[C@H](CCc2ccc(C(F)(F)F)c(Cl)c2)NC(=O)[C@@H](C)N(C)C(=O)[C@H](CC2CCCCC2)N(C)C(=O)[C@@H]2CCN2C(=O)CN(C)C1=O [Compound 115] ([NMeA]I[Sar][Aze][NMeCha][dNMeA][hPhe(3-Cl-4-CF3)]P[Ac5c][NMeV][NMeD]-Piperidide; lactam N-11) | 6 | > 500
CC[C@H](C)[C@@H]1NC(=O)[C@H](CC(C)C)N(C)C(=O)C[C@@H](C(=O)N2CCCCC2)N(C)C(=O)[C@H](C2CCCCC2)N(C)C(=O)C2(CCCC2)NC(=O)[C@H]([C@@H](C)O)N(C)C(=O)[C@H](CCc2ccc(C(F)(F)F)c(Cl)c2)NC(=O)CN(C)C(=O)[C@H](CC2CCCCC2)N(C)C(=O)CN(C)C(=O)CN(C)C1=O [Compound 118] ([NMeL]I[Sar][Sar][NMeCha][Sar][hPhe(3-Cl-4-CF3)][NMeT][Ac5c][NMeChg][NMeD]-Piperidide; lactam N-11) | 1.9 | > 500
CC[C@H](C)[C@@H]1NC(=O)[C@H](CC(C)C)N(C)C(=O)C[C@@H](C(=O)N2CCCCC2)N(C)C(=O)[C@H](C2CCCC2)N(C)C(=O)C2(CCCC2)NC(=O)[C@@H]2CCCN2C(=O)[C@H](CCc2ccc(C(F)(F)F)c(Cl)c2)NC(=O)CN(C)C(=O)[C@H](Cc2ccc(Cl)cc2)N(C)C(=O)[C@@H]2CCN2C(=O)[C@H](C)N(C)C1=O [Compound 120] ([NMeL]I[NMeA][Aze][NMePhe(4-Cl)][Sar][hPhe(3-Cl-4-CF3)]P[Ac5c][NMeGly(cPent)][NMeD]-Piperidide; lactam N-11) | 0.55 | ≤ 20
CC[C@H](C)[C@@H]1NC(=O)[C@H](CC(C)C)N(C)C(=O)C[C@@H](C)NC(=O)[C@H](C(C)C)N(C)C(=O)[C@H](Cc2ccccc2)N(C)C(=O)[C@H](CC(C)C)N(C)C(=O)[C@H](CCc2ccc(C(F)(F)F)cc2)NC(=O)CN(C)C(=O)[C@H](Cc2ccc(Cl)cc2)N(C)C(=O)CN(C)C(=O)CN(C)C1=O [Compound 124] (cyclo(I[Sar][Sar][NMePhe(4-Cl)][Sar][hPhe(4-CF3)][NMeL][NMeF][NMeV][d(β3hA)][NMeL])) | 140 | > 500
CCO[C@@H]1C[C@H]2C(=O)NC3(CCC3)C(=O)N(C)[C@@H](C3CCCC3)C(=O)N(C)[C@H](C)CC(=O)N(C)[C@@H](CC(C)C)C(=O)N[C@@H]([C@@H](C)CC)C(=O)N(C)[C@@H](C)C(=O)N3CC[C@H]3C(=O)N(CC)[C@@H](Cc3ccc(C(F)(F)F)cc3)C(=O)N(C)CC(=O)N[C@@H](CCc3cc(F)c(C(F)(F)F)c(F)c3)C(=O)N2C1 [Compound 132] (cyclo([Ac4c][NMeGly(cPent)][NMedβ3hAla][NMeL]I[NMeA][Aze][NEtPhe(4-CF3)][Sar][hPhe(3,5-F2-4-CF3)][Hyp](Et))) | 0.96 | ≤ 20
